{"source": "patent US20030134859A1", "about": "(SANKYO COMPANY, LIMITED, priority 2000, published 2003)", "key": {"[1]": {"tested_on": "Balb/c mice", "test": "Prevention of concanavalin A liver injury", "type": "in vivo, mouse", "conditions": "Mus musculus, po, 24 h, 10 mg/mL suspension at 10 mL/kg, 30 min prior to Con A, plasma 24 hr after Con A", "procedure": "Five (5) Balb/c mice (female, 6-8 weeks old) per group were used. Liver injury was elicited in the mouse by injection of concanavalin A (Con A) dissolved in saline (2.0 mg/mL) into the tail vein at a volume of 10 mL/kg of the solution (Hepatology, 21, 190-198 (1995)).\nThe test compounds were suspended in distilled water containing 0.5% CMC, at a concentration of 10 mg/mL. This suspended solution was orally administered to the mouse at a volume of 10 mL/kg, 30 min prior to injection of Con A (group A).\nApart from this group, distilled water containing 0.5% CMC powder, instead of the test compound, was orally administered in the second group of mice (group B). In the 3rd group, nothing was given to the mice (group C).\nTwenty four (24) hr after the injection of Con A, blood was collected from the abdominal aorta of the mice and the plasma was isolated while mixing with heparin. Activities of glutamic acid oxaloacetic acid transaminase (AST) and glutamic acid pyruvic acid transaminase (ALT) in the plasma were determined according to the methods described by Nagakawa et al. (J. Pharmacol. Exp. Ther., 264, 496-500 (1993)). From the values obtained inhibitory rates of the test compound against AST and ALT levels which had been increased by injection of Con A, were obtained based on the following equation.\nInhibitory Rate(%)={1−[(A−C)/(B−C)]}×100\nA: The average level of AST or ALT in the group A\nB: The average level of AST or ALT in the group B\nC: The average level of AST or ALT in the group C"}, "[2]": {"tested_on": "leptin production", "test": "Enhancing activity for leptin production in adipocytes (ELISA)", "type": "cell-based, rat", "conditions": "leptin concentration as % of control group; for activity at 0.01 µM: 10 nm", "how_it_was_run": "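Collagenase-dispersed epididymal adipocytes from 6-week-old male Wistar Imamichi rats, cultured in DMEM/F-12 (1:1) with test compound at final 1 µM, 100 nM, 10 nM or 1 nM (0.1% DMSO) for 24 h at 37 °C, 5% CO2. Leptin in filtrate measured by ELISA; activity = treated/DMSO-control leptin × 100 (%).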"}, "[3]": {"conditions": "read-out: Preventing rate against liver injury, ALT (%)"}, "[4]": {"conditions": "read-out: Preventing rate against liver injury, AST (%)"}, "[5]": {"conditions": "Rattus norvegicus, Adipocyte, 24 h, read-out: Facilitating activity to produce leptin"}, "[6]": {"conditions": "Rattus norvegicus, Adipocyte, 24 h, 100 nm, read-out: Facilitating activity to produce leptin"}}, "note": "Read-outs that look alike come from different tables or passages of the source.", "data": [{"compound": "Cc1ccc(NC(=O)c2cc([N+](=O)[O-])ccc2Cl)cc1", "note": "[Example 1, N-(4-Methylphenyl)-(2-chloro-5-nitrophenyl)carboxamide]", "values": [{"measurement": "inhibition in vivo at 10000 µg/mL, 100 mg/kg", "setting": "[1]; [3]", "value": 40.1, "unit": "%"}, {"measurement": "inhibition in vivo at 10000 µg/mL, 100 mg/kg", "setting": "[1]; [4]", "value": 19, "unit": "%"}]}, {"compound": "O=C(Nc1ccc(-c2ccccc2)cc1)c1cc([N+](=O)[O-])ccc1Cl", "note": "[Example 2, N-(4-Phenylphenyl)-(2-chloro-5-nitrophenyl)carboxamide]", "values": [{"measurement": "activity at 1 µM", "setting": "[2]; [5]", "value": 113, "unit": "%"}, {"measurement": "inhibition in vivo at 10000 µg/mL, 100 mg/kg", "setting": "[1]; [3]", "value": 64.5, "unit": "%"}, {"measurement": "inhibition in vivo at 10000 µg/mL, 100 mg/kg", "setting": "[1]; [4]", "value": 4.1, "unit": "%"}]}, {"compound": "O=C(Nc1ccc(-c2ccccn2)cc1)c1cc([N+](=O)[O-])ccc1Cl", "note": "[Example 8, N-[4-(2-Pyridyl)phenyl]-(2-chloro-5-nitrophenyl)carboxamide]", "values": [{"measurement": "inhibition in vivo at 10000 µg/mL, 100 mg/kg", "setting": "[1]; [3]", "value": 57, "unit": "%"}, {"measurement": "inhibition in vivo at 10000 µg/mL, 100 mg/kg", "setting": "[1]; [4]", "value": 56, "unit": "%"}]}, {"compound": "Cc1ccc2nc(-c3ccc(NC(=O)c4cc([N+](=O)[O-])ccc4Cl)cc3)sc2c1", "note": "[Example 10, N-[4-(6-Methylbenzothiazol-2-yl)phenyl]-(2-chloro-5-nitrophenyl)carboxamide]", "values": [{"measurement": "activity at 1 µM", "setting": "[2]; [5]", "value": 118, "unit": "%"}, {"measurement": "inhibition in vivo at 10000 µg/mL, 100 mg/kg", "setting": "[1]; [3]", "value": 55.9, "unit": "%"}, {"measurement": "inhibition in vivo at 10000 µg/mL, 100 mg/kg", "setting": "[1]; [4]", "value": 49, "unit": "%"}]}, {"compound": "CCCCCc1ccc(NC(=O)c2cc([N+](=O)[O-])ccc2Cl)cc1", "note": "[Example 16, N-(4-Pentylphenyl)-(2-chloro-5-nitrophenyl)carboxamide]", "values": [{"measurement": "inhibition in vivo at 10000 µg/mL, 100 mg/kg", "setting": "[1]; [3]", "value": 44.4, "unit": "%"}, {"measurement": "inhibition in vivo at 10000 µg/mL, 100 mg/kg", "setting": "[1]; [4]", "value": 21.4, "unit": "%"}]}, {"compound": "N#Cc1ccc(NC(=O)c2cc([N+](=O)[O-])ccc2Cl)cc1", "note": "[Example 20, N-(4-Cyanophenyl)-(2-chloro-5-nitrophenyl)carboxamide]", "values": [{"measurement": "activity at 1 µM", "setting": "[2]; [5]", "value": 126, "unit": "%"}, {"measurement": "activity at 0.001 µM", "setting": "[2]; Rattus norvegicus, Adipocyte, 24 h, 1 nm, read-out: Facilitating activity to produce leptin", "value": 130, "unit": "%"}, {"measurement": "activity at 0.01 µM", "setting": "[2]; [5]", "value": 135, "unit": "%"}, {"measurement": "activity at 0.1 µM", "setting": "[2]; [6]", "value": 155, "unit": "%"}, {"measurement": "inhibition in vivo at 10000 µg/mL, 100 mg/kg", "setting": "[1]; [3]", "value": 67.2, "unit": "%"}, {"measurement": "inhibition in vivo at 10000 µg/mL, 100 mg/kg", "setting": "[1]; [4]", "value": 77, "unit": "%"}]}, {"compound": "O=C(Nc1nc(-c2ccccc2)cs1)c1cc([N+](=O)[O-])ccc1Cl", "note": "[Example 35, N-(4-Phenylthiazol-2-yl)-(2-chloro-5-nitrophenyl)carboxamide]", "values": [{"measurement": "inhibition in vivo at 10000 µg/mL, 100 mg/kg", "setting": "[1]; [3]", "value": 12.4, "unit": "%"}]}, {"compound": "O=C(Nc1nc(-c2cccnc2)cs1)c1cc([N+](=O)[O-])ccc1Cl", "note": "[Example 37, N-[4-(3-Pyridyl)thiazol-2-yl)-(2-chloro-5-nitrophenyl)carboxamide]", "values": [{"measurement": "inhibition in vivo at 10000 µg/mL, 100 mg/kg", "setting": "[1]; [3]", "value": 20.7, "unit": "%"}]}, {"compound": "COc1cnc(NS(=O)(=O)c2ccc(NC(=O)c3cc([N+](=O)[O-])ccc3Cl)cc2)nc1", "note": "[Example 105, N-[4-[(5-Methoxypyrimidin-2-yl)aminosulfonyl]phenyl]-(2-chloro-5-nitrophenyl)carboxamide]", "values": [{"measurement": "inhibition in vivo at 10000 µg/mL, 100 mg/kg", "setting": "[1]; [3]", "value": 22.4, "unit": "%"}, {"measurement": "inhibition in vivo at 10000 µg/mL, 100 mg/kg", "setting": "[1]; [4]", "value": 27.5, "unit": "%"}]}, {"compound": "N=C(N)NS(=O)(=O)c1ccc(NC(=O)c2cc([N+](=O)[O-])ccc2Cl)cc1", "note": "[Example 106, N-[4-(Amidinoaminosulfonyl)phenyl]-(2-chloro-5-nitrophenyl)carboxamide]", "values": [{"measurement": "inhibition in vivo at 10000 µg/mL, 100 mg/kg", "setting": "[1]; [3]", "value": 114, "unit": "%"}, {"measurement": "inhibition in vivo at 10000 µg/mL, 100 mg/kg", "setting": "[1]; [4]", "value": 106, "unit": "%"}]}, {"compound": "O=C(Nc1ccc(S(=O)(=O)Nc2cccnc2)cc1)c1cc([N+](=O)[O-])ccc1Cl", "note": "[Example 178]", "values": [{"measurement": "activity at 1 µM", "setting": "[2]; [5]", "value": 117, "unit": "%"}, {"measurement": "inhibition in vivo at 10000 µg/mL, 100 mg/kg", "setting": "[1]; [3]", "value": 50.5, "unit": "%"}, {"measurement": "inhibition in vivo at 10000 µg/mL, 100 mg/kg", "setting": "[1]; [4]", "value": 64.5, "unit": "%"}]}, {"compound": "O=C(Nc1ccc(-c2ccc(NC(=S)Nc3ccncc3)cc2)cc1)c1cc([N+](=O)[O-])ccc1Cl", "note": "[Example 258, N-[4-[4-[(Pyridin-4-yl)aminothiocarbonylamino]phenyl]phenyl]-(2-chloro-5-nitrophenyl)carboxamide]", "values": [{"measurement": "activity at 1 µM", "setting": "[2]; [5]", "value": 112, "unit": "%"}, {"measurement": "activity at 0.01 µM", "setting": "[2]; [5]", "value": 120, "unit": "%"}, {"measurement": "activity at 0.1 µM", "setting": "[2]; [6]", "value": 114, "unit": "%"}]}, {"compound": "O=C(Nc1ccc(NC(=S)Nc2ccncc2)cc1)c1cc([N+](=O)[O-])ccc1Cl", "note": "[Example 259, N-[4-[(Pyridin-4-yl)aminothiocarbonylamino]phenyl]-(2-chloro-5-nitrophenyl)carboxamide]", "values": [{"measurement": "activity at 0.01 µM", "setting": "[2]; [5]", "value": 111, "unit": "%"}, {"measurement": "activity at 0.1 µM", "setting": "[2]; [6]", "value": 110, "unit": "%"}]}, {"compound": "NCCc1ccc(NC(=O)c2cc([N+](=O)[O-])ccc2Cl)cc1", "note": "[Example 267, N-[4-(2-Aminoethyl)phenyl]-(2-chloro-5-nitrophenyl)carboxamide]", "values": [{"measurement": "activity at 0.01 µM", "setting": "[2]; [5]", "value": 118, "unit": "%"}, {"measurement": "activity at 0.1 µM", "setting": "[2]; [6]", "value": 110, "unit": "%"}]}, {"compound": "N-[4-(Pyrrolidinylsulfonyl)phenyl]-(2-chloro-5-nitrophenyl)carboxamide [Example 152]", "values": [{"measurement": "Facilitating activity to produce leptin", "setting": "[2]; 100 nm, 24 hr", "value": 116.4, "unit": "%"}]}]}
